Data published in patent US20230080819A1, “HERBICIDE COMBINATIONS COMPRISING GLUFOSINATE AND TIAFENACIL” (BASF SE, priority 2020, published 2023).

Assays:
Format in all cases: in vivo
Conditions in all cases: 20 DAT
Galium aparine (GALAP) = assay: Greenhouse post-emergence weed control, Cleavers
[1] = test system: Echinochloa crus-galli (ECHCG); assay: Greenhouse post-emergence weed control, barnyardgrass
[2] = test system: Amaranthus tuberculatus (AMATU); assay: Greenhouse post-emergence weed control, waterhemp
[3] = test system: Amaranthus Palmeri (AMAPA); assay: Greenhouse post-emergence weed control, Palmer Amaranth

SMILES | Solo % activity (Galium aparine (GALAP); Glufosinate 100 g ai/ha solo) | Solo % activity ([1]; Glufosinate 50 g ai/ha solo, ECHCG) | Solo % activity ([1]; Glufosinate 100 g ai/ha solo, ECHCG) | Solo % activity ([2]; Glufosinate 50 g ai/ha solo, post-emergence, AMATU, 1% MSO) | Solo % activity ([2]; Glufosinate 100 g ai/ha solo, AMATU) | Solo % activity ([2]; Glufosinate 200 g ai/ha solo, AMATU) | Solo % activity ([3]; Glufosinate 100 g ai/ha solo) | Solo % activity ([3]; Glufosinate 200 g ai/ha solo) | Solo % activity (Galium aparine (GALAP); Tiafenacil 0.5 g ai/ha solo) | Solo % activity ([1]; Tiafenacil 0.5 g ai/ha solo, ECHCG (Table 3)) | Solo % activity ([1]; Tiafenacil 0.5 g ai/ha solo, ECHCG (Table 7)) | Solo % activity ([2]; Tiafenacil 1.5 g ai/ha solo, AMATU (Table 2)) | Solo % activity ([2]; Tiafenacil 1.5 g ai/ha solo, AMATU (Table 5)) | Solo % activity ([2]; Tiafenacil 1.5 g ai/ha solo, post-emergence, AMATU, 1% MSO) | Solo % activity ([3]; Tiafenacil 0.15 g ai/ha solo) | Solo % activity ([3]; Tiafenacil 1.5 g ai/ha solo)
CP(=O)(O)CCC(N)C(=O)O (racemic) [Glufosinate, (2RS)-2-amino-4-[hydroxy(methyl)phosphinoyl]butyric acid] | 60% | 10% | 25% | 10% | 10% | 70% | 25% | 75% |  |  |  |  |  |  |  | 
COC(=O)CCNC(=O)C(C)Sc1cc(-n2c(=O)cc(C(F)(F)F)n(C)c2=O)c(F)cc1Cl (stereo not shown) [Tiafenacil, tiafenacil] |  |  |  |  |  |  |  |  | 0% | 10% | 10% | 15% | 15% | 15% | 0% | 25%
